Reference: US10858335B2 (Rigel Pharmaceuticals, Inc., priority 2014, dated 2020)
pIC50: −log10 of the molar value.

These compounds were tested on GDF8 signaling (p-SMAD-3 (Ser423/425)) (assay: AlphaScreen SureFire SMAD3 (p-Ser423/425) assay, GDF8-stimulated cells (GDF pSMAD)). Details: Mus musculus, MPC-11, MPC11; GDF8-stimulated; p-SMAD3 AlphaScreen; read-out: GDF pSMAD (MPC11) (inhibition of GDF8 signaling).
Assay type: cell-based
`Cc1cc(-c2ncccc2-c2ccc3nccc(C(N)=O)c3c2)ccc1F` [compound 846, 6-(2-(4-Fluoro-3-methylphenyl)pyridin-3-yl)quinoline-4-carboxamide] was tested, and the pIC50 was 4.85.
With `NC(=O)c1ccnc2ccc(-c3cccnc3-c3cccc(Cl)c3)cc12` [compound 848, 6-(2-(3-Chlorophenyl)pyridin-3-yl)quinoline-4-carboxamide] the pIC50 was 4.95.
For `NC(=O)c1ccnc2ccc(-c3cccnc3-c3cc(Cl)ccc3F)cc12` [compound 849, 6-(2-(5-Chloro-2-fluorophenyl)pyridin-3-yl)quinoline-4-carboxamide], the pIC50 was 4.74.
In the case of `NC(=O)c1ccnc2ccc(-c3cccnc3-c3cc(Cl)c(F)cc3F)cc12` [compound 850, 6-(2-(5-Chloro-2,4-difluorophenyl)pyridin-3-yl)quinoline-4-carboxamide], the pIC50 was 4.68.
`Fc1ccc(-c2ncccc2-c2ccc3ncc(-c4cc[nH]n4)n3c2)cc1Cl` [compound 852, 6-(2-(3-Chloro-4-fluorophenyl)pyridin-3-yl)-3-(1H-pyrazol-3-yl)imidazo[1,2-a]pyridine] gave a pIC50 of 6.68.
Compound `Cn1ccc(-c2cnc3ccc(-c4cccnc4-c4ccc(F)c(Cl)c4)cn23)n1` [compound 853, 6-(2-(3-Chloro-4-fluorophenyl)pyridin-3-yl)-3-(1-methyl-1H-pyrazol-3-yl)imidazo[1,2-a]pyridine] has a pIC50 of 6.05.
With `COc1cnc(-c2ccc(F)c(C)c2)c(-c2ccn3ncnc3c2)c1` [compound 854, 7-(2-(4-Fluoro-3-methylphenyl)-5-methoxypyridin-3-yl)-[1,2,4]triazolo[1,5-a]pyridine] the pIC50 was 5.33.
`COc1cnc(-c2cccc(Cl)c2)c(-c2ccn3ncnc3c2)c1` [compound 855, 7-(2-(3-Chlorophenyl)-5-methoxypyridin-3-yl)-[1,2,4]triazolo[1,5-a]pyridine] gave a pIC50 of 5.46.
For `COc1cnc(-c2ccc(F)c(Cl)c2)c(-c2ccn3ncnc3c2)c1` [compound 856, 7-(2-(3-Chloro-4-fluorophenyl)-5-methoxypyridin-3-yl)-[1,2,4]triazolo[1,5-a]pyridine], the pIC50 was 5.25.
In the case of `COc1cnc(-c2cc(Cl)c(F)cc2F)c(-c2ccn3ncnc3c2)c1` [compound 857, 7-(2-(5-Chloro-2,4-difluorophenyl)-5-methoxypyridin-3-yl)-[1,2,4]triazolo[1,5-a]pyridine], the pIC50 was 5.73.
`COc1cnc(-c2cc(Cl)ccc2F)c(-c2ccn3ncnc3c2)c1` [compound 858, 7-(2-(5-Chloro-2-fluorophenyl)-5-methoxypyridin-3-yl)-[1,2,4]triazolo[1,5-a]pyridine] gave a pIC50 of 5.63.
Compound `COc1cnc(-c2cccc(C(F)(F)F)c2)c(-c2ccn3ncnc3c2)c1` [compound 859] has a pIC50 of 5.43.
With `Fc1cnc(-c2ccc(F)c(Cl)c2)c(-c2ccn3ncnc3c2)c1` [compound 860, 7-(2-(3-Chloro-4-fluorophenyl)-5-fluoropyridin-3-yl)-[1,2,4]triazolo[1,5-a]pyridine] the pIC50 was 5.00.
`Fc1cnc(-c2cc(Cl)c(F)cc2F)c(-c2ccn3ncnc3c2)c1` [compound 861, 7-(2-(5-Chloro-2,4-difluorophenyl)-5-fluoropyridin-3-yl)-[1,2,4]triazolo[1,5-a]pyridine] gave a pIC50 of 5.40.
With `Fc1cnc(-c2cc(Cl)ccc2F)c(-c2ccn3ncnc3c2)c1` [compound 862, 7-(2-(5-Chloro-2-fluorophenyl)-5-fluoropyridin-3-yl)-[l 1,2,4]triazolo[1,5-a]pyridine] the pIC50 was 5.74.
With `Fc1cnc(-c2cccc(C(F)(F)F)c2)c(-c2ccn3ncnc3c2)c1` [compound 863, 7-(2-(3-((Difluoro-13-methyl)-12-fluoranyl)phenyl)-5-fluoropyridin-3-yl)-[1,2,4]triazolo[1,5-a]pyridine] the pIC50 was 5.23.
Work on `Cc1cnc(-c2ccc(F)c(Cl)c2)c(-c2ccn3ncnc3c2)c1` [compound 864, 7-(2-(3-Chloro-4-fluorophenyl)-5-methylpyridin-3-yl)-[1,2,4]triazolo[1,5-a]pyridine] yielded a pIC50 of 5.81.
`Cc1cnc(-c2cc(Cl)c(F)cc2F)c(-c2ccn3ncnc3c2)c1` [compound 865, 7-(2-(5-Chloro-2,4-difluorophenyl)-5-methylpyridin-3-yl)-[l 1,2,4]triazolo[1,5-a]pyridine] showed a pIC50 of 6.22.
With `Cc1cnc(-c2cc(Cl)ccc2F)c(-c2ccn3ncnc3c2)c1` [compound 866, 7-(2-(5-Chloro-2-fluorophenyl)-5-methylpyridin-3-yl)-[1,2,4]triazolo[1,5-a]pyridine] the pIC50 was 6.60.
`Cc1cnc(-c2cccc(C(F)(F)F)c2)c(-c2ccn3ncnc3c2)c1` [compound 867, 7-(2-(3-((Difluoro-13-methyl)-12-fluoranyl)phenyl)-5-methylpyridin-3-yl)-[1,2,4]triazolo[1,5-a]pyridine] gave a pIC50 of 6.12.
`Cc1cnc(-c2cccc(Cl)c2)c(-c2ccn3ncnc3c2)c1` [compound 868, 7-(2-(3-Chlorophenyl)-5-methylpyridin-3-yl)-[1,2,4]triazolo[1,5-a]pyridine] showed a pIC50 of 6.39.
`Clc1ccc(Cl)c(-c2ncccc2-c2ccc3ncsc3c2)c1` [compound 869, 6-(2-(2,5-Dichlorophenyl)pyridin-3-yl)benzo[d]thiazole] was tested, and the pIC50 was 6.16.
In the case of `Cn1cnc2ccc(-c3cccnc3-c3cc(Cl)ccc3Cl)cc21` [compound 870, 6-(2-(2,5-Dichlorophenyl)pyridin-3-yl)-1-methyl-1H-benzo[d]imidazole], the pIC50 was 6.25.
Work on `Clc1ccc(Cl)c(-c2ncccc2-c2ccc3nc[nH]c3c2)c1` [compound 871, 6-(2-(2,5-Dichlorophenyl)pyridin-3-yl)-1H-benzo[d]imidazole] yielded a pIC50 of 5.74.
`Clc1ccc(Cl)c(-c2ncccc2-c2ccc3nccn3c2)c1` [compound 872, 6-(2-(2,5-Dichlorophenyl)pyridin-3-yl)imidazo[1,2-a]pyridine] showed a pIC50 of 6.11.
Work on `Clc1ccc(Cl)c(-c2ncccc2-c2ccn3ncnc3c2)c1` [compound 873, 7-(2-(2,5-Dichlorophenyl)pyridin-3-yl)-[1,2,4]triazolo[1,5-a]pyridine] yielded a pIC50 of 5.92.
Work on `Fc1cc(F)c(-c2ncccc2-c2ccn3ncnc3c2)cc1F` [compound 874, 7-(2-(2,4,5-Trifluorophenyl)pyridin-3-yl)-[1,2,4]triazolo[1,5-a]pyridine] yielded a pIC50 of 5.19.
`Fc1cc(-c2ncccc2-c2ccn3ncnc3c2)cc(F)c1F` [compound 875, 7-(2-(3,4,5-Trifluorophenyl)pyridin-3-yl)-[1,2,4]triazolo[1,5-a]pyridine] was tested, and the pIC50 was 4.91.
Compound `Cc1ccc(Cl)c(-c2ncccc2-c2ccn3ncnc3c2)c1` [compound 876, 7-(2-(2-Chloro-5-methylphenyl)pyridin-3-yl)-[1,2,4]triazolo[1,5-a]pyridine] has a pIC50 of 5.62.
`Cc1ccc(C(F)(F)F)cc1-c1ncccc1-c1ccn2ncnc2c1` [compound 878, 7-(2-(2-Methyl-5-(trifluoromethyl)phenyl)pyridin-3-yl)-[1,2,4]triazolo[1,5-a]pyridine] gave a pIC50 of 4.99.
Work on `FC(F)(F)c1cccc(-c2ncccc2-c2ccn3ncnc3c2)c1` [compound 879, 7-(2-(3-(Trifluoromethyl)phenyl)pyridin-3-yl)-[1,2,4]triazolo[1,5-a]pyridine] yielded a pIC50 of 5.83.
With `COc1cccc(-c2ncccc2-c2ccn3ncnc3c2)c1` [compound 880, 7-(2-(3-Methoxyphenyl)pyridin-3-yl)-[1,2,4]triazolo[1,5-a]pyridine] the pIC50 was 6.09.
With `FC(F)(F)Oc1cccc(-c2ncccc2-c2ccn3ncnc3c2)c1` [compound 882, 7-(2-(3-(Trifluoromethoxy)phenyl)pyridin-3-yl)-[1,2,4]triazolo[1,5-a]pyridine] the pIC50 was 5.95.
With `FC(F)Oc1cccc(-c2ncccc2-c2ccn3ncnc3c2)c1` [compound 883, 7-(2-(3-(Difluoromethoxy)phenyl)pyridin-3-yl)-[1,2,4]triazolo[1,5-a]pyridine] the pIC50 was 6.29.
With `Fc1ccc(OC(F)(F)F)cc1-c1ncccc1-c1ccn2ncnc2c1` [compound 884, 7-(2-(2-Fluoro-5-(trifluoromethoxy)phenyl)pyridin-3-yl)-[1,2,4]triazolo[1,5-a]pyridine] the pIC50 was 6.00.
`CNc1ncnc2ccc(-c3cccnc3-c3ccc(F)c(Cl)c3)cc12` [compound 886, 6-(2-(3-Chloro-4-fluorophenyl)pyridin-3-yl)-N-methylquinazolin-4-amine] showed a pIC50 of 6.60.
With `Cn1c(=O)cnc2ccc(-c3cccnc3-c3ccc(F)c(Cl)c3)cc21` [compound 887, 7-(2-(3-Chloro-4-fluorophenyl)pyridin-3-yl)-1-methylquinoxalin-2(1H1)-one] the pIC50 was 5.76.
Compound `Cc1cc(-c2ncccc2-c2ccc3ncc(=O)n(C)c3c2)ccc1F` [compound 888, 7-(2-(4-Fluoro-3-methylphenyl)pyridin-3-yl)-1-methylquinoxalin-2(1H)-one] has a pIC50 of 5.39.
`Cn1c(=O)cnc2ccc(-c3cccnc3-c3cc(Cl)ccc3F)cc21` [compound 889, 7-(2-(5-Chloro-2-fluorophenyl)pyridin-3-yl)-1-methylquinoxalin-2(1H)-one] gave a pIC50 of 5.82.
Compound `O=c1cnc2ccc(-c3cccnc3-c3ccc(F)c(Cl)c3)cc2[nH]1` [compound 890, 7-(2-(3-Chloro-4-fluorophenyl)pyridin-3-yl)quinoxalin-2(1H)-one] has a pIC50 of 5.89.
Work on `Cc1cc(-c2ncccc2-c2ccc3ncc(=O)[nH]c3c2)ccc1F` [compound 891, 7-(2-(4-Fluoro-3-methylphenyl)pyridin-3-yl)quinoxalin-2(1H)-one] yielded a pIC50 of 6.20.
`O=c1cnc2ccc(-c3cccnc3-c3cc(Cl)ccc3F)cc2[nH]1` [compound 892, 7-(2-(5-Chloro-2-fluorophenyl)pyridin-3-yl)quinoxalin-2(1H)-one] was tested, and the pIC50 was 6.37.
Work on `Fc1ccc(-c2ncccc2-c2ccn3nccc3n2)cc1C1CC1` [compound 896, 5-(2-(3-Cyclopropyl-4-fluorophenyl)pyridin-3-yl)pyrazolo[1,5-a]pyrimidine] yielded a pIC50 of 7.03.
`CCOC(=O)c1cnn2ccc(-c3cccnc3-c3ccc(F)c(Cl)c3)nc12` [compound 898, Ethyl 5-(2-(3-chloro-4-fluorophenyl)pyridin-3-yl)pyrazolo[1,5-a]pyrimidine-3-carboxylate] was tested, and the pIC50 was 6.15.
